# Source: patent US10251869B2, “Compositions and methods of inhibiting metallo-β-lactamases” (priority 2014, dated 2019)
# Where two headings read alike, the source gives them in different places.
# Key:
# VIM-2 = target: T1, VIM-2 (Pseudomonas aeruginosa, UniProt Q9K2N0); assay: BTZ inhibition kinetics of nitrocefin hydrolysis by VIM-2; type: biochemical, P. aeruginosa; details: for k−2: rate constant for breakdown of E*I; for k2: rate constant for formation of E*I
# T1 construct: made in house; host or cells: E. coli BL21(DE3) pLys, plasmid pET-24a(+)-blaVIM-2-S21
# From the text: (§1) Analysis of BTZ inhibition kinetics. Models involving one, or two-step slow binding were considered to analyze BTZ inhibition of NFC hydrolysis by VIM-2 and VIM-24 (Scheme 1).
# (§2) Here E represents the free enzyme, and I the free inhibitor, EI is the final enzyme-inhibitor complex for a single step slow binding mechanism, and E*I is the enzyme-inhibitor complex formed after conformational changes in a two-step slow binding mechanism. Therefore, the dissociation constant for the EI complex (Ki), also called the inhibitor constant, is defined as Ki=k−1/k1; the dissociation constant for the E*I complex (Ki′) is defined as Ki′=k−2/k2, and the overall dissociation constant for the two-step mechanism (Ki*) is defined as Ki*=Ki/(1+([…])).
# (§3) The Ki for each inhibitor was determined by direct competition assays under steady-state conditions. The initial velocity was measured in the presence of a constant concentration of enzyme (3 nM for VIM-2 and 4 nM for VIM-24) with increasing concentrations of inhibitor (5-60 μM) against a fixed concentration (5 x KM) of the indicator substrate, NCF, as previously described (42-44). The reactions were started by addition of VIM-2 or VIM-24 to substrate or to mixtures of substrate and inhibitor. Data were linearized by plotting inverse initial steady-state velocities (1/v0) against inhibitor concentration (I). Ki (observed) was determined by dividing the value for the y intercept by the slope of the line. Ki determinations were corrected to account for the affinity of NCF for the β-lactamase according to equation 3.
# (§4) Measurements of association rate constants for inhibitor binding were carried out at 25° C. in 10 mM HEPES at pH 7.5 supplemented with 200 mM NaCl, 50 μM […] and 50 μg/ml BSA, in the presence of several concentrations of each compound. Reactions were then initiated by the addition of β-lactamase (3 nM VIM-2 or 4 nM VIM-24) to a mixture of 50 μM NCF and each BTZ without pre-incubation. Inhibitor association rate constants were estimated from linear extrapolation of the observed rate constant for inhibition (kobs), which was obtained by fitting progress curves of NFC hydrolysis to Eq. 4:
# (§5) As previously described, the linear dependence of kobs vs. [I] at limiting I concentration approximates second-order rate constant k2/Ki. The observed second-order rate constant also includes an adjustment for competition between inhibitor and substrate binding (Eq. 5).
# (§6) Also, vs calculated from the progress curves of NCF hydrolysis for each concentration of inhibitor were used to determine Ki*, according to the relationship shown in equation 6 (5). The value reported is the mean of three velocities±SD.
# (§7) To further test the time-dependent inhibition mechanism of inhibitor binding, assays using dilutions of pre-formed complexes were performed. For these experiments, 1 μM of enzyme was incubated with varying concentrations of the inhibitor which allowed for complete inactivation of the enzyme during the 5 min incubation at 25° C. The reactions were then diluted 2,000-fold in 10 mM HEPES at pH 7.5 supplemented with 200 mM NaCl, 50 μM […] and 50 μg/ml BSA, which contained 50 μM NCF. Reactivation of the enzyme based on NCF hydrolysis was monitored over time. Control reaction with the free enzyme was performed in the same fashion.
# VIM-24 [1] = target: T2, VIM-24 (Escherichia coli, UniProt Q5U7L7, R205L); assay: BTZ inhibition kinetics of nitrocefin hydrolysis by VIM-24; type: biochemical; details: for k−2: rate constant for breakdown of E*I; for k2: rate constant for formation of E*I
# T2 construct: which corresponds to cleavage after residues 20 (plus an additional Met residue on the N-terminus); made in house; host or cells: E. coli BL21(DE3) pLys, plasmid pET-24a(+)-blaVIM-24-S21
# From the text: as §1, §2, §3, §4, §5, §6, §7
# E. coli pBC SK(−) = assay: MIC by agar dilution, E. coli DH10B host with empty phagemid; type: cell-based; details: Escherichia coli
# Experimental: (§8) E. coli DH10B (Invitrogen, Carlsbad, Calif.) was used as a host strain for pBCSK (−) blaVIM-2, and to obtain a mutant library at position 228 by site-saturation mutagenesis, using the QuickChange XL Site-directed Mutagenesis Kit (Stratagene). Briefly, primers that capture all 19 variants at MBL position 228 were designed and PCR mutagenic reactions were conducted using pBCSK (−) blaVIM-2 as a template, and transformed into E. coli DH10B. Single colonies were selected for plasmid purification, and successful mutagenesis was verified by complete DNA sequencing.
# (§9) The effect of Zn^2+ availability was also tested by agar dilution using MH supplemented with 250 μM ZnSO4 or 5 μM EDTA. Reported values are the mode of at least 3 biological replicates.
# [2] = test system: E. coli DH10B pBCSK(−) producing R228K variant; assay: MIC by agar dilution, E. coli DH10B producing VIM-2 R228K; type: cell-based; details: Escherichia coli
# Experimental: as §8, §9
# [3] = test system: E. coli DH10B pBCSK(−) producing VIM-2 (228R); assay: MIC by agar dilution, E. coli DH10B producing VIM-2; type: cell-based; details: Escherichia coli, read-out: MIC
# From the text: A forward primer containing the SacI restriction site and a reverse primer with the BamHI restriction site were used to amplify blaVIM-2 including the pET24a(+) ribosomal binding site, using plasmid pET-24a(+)-blaVIM-2 as template. The product was then subcloned into phagemid pBCSK (−) (Agilent (Santa Clara, Calif.)) using the above restriction sites, and thus placing the blaVIM-2 open reading frame under control of the lac promoter, to yield phagemid pBCSK (−) blaVIM-2.
# as §8, §9
# [4] = test system: E. coli DH10B pBCSK(−) producing R228Y variant; assay: MIC by agar dilution, E. coli DH10B producing VIM-2 R228Y; type: cell-based; details: Escherichia coli
# Experimental: as §8, §9
# [5] = test system: E. coli DH10B pBCSK(−) producing R228P variant; assay: MIC by agar dilution, E. coli DH10B producing VIM-2 R228P; type: cell-based; details: Escherichia coli
# Experimental: as §8, §9
# [6] = test system: E. coli DH10B pBCSK(−) producing VIM-24 (R228L); assay: MIC by agar dilution, E. coli DH10B producing VIM-24; type: cell-based; details: Escherichia coli, read-out: MIC
# Experimental: as §8, §9
# [7] = test system: E. coli DH10B pBCSK(−) producing R228M variant; assay: MIC by agar dilution, E. coli DH10B producing VIM-2 R228M; type: cell-based; details: Escherichia coli
# Experimental: as §8, §9
# [8] = test system: E. coli DH10B pBCSK(−) producing R228Q variant; assay: MIC by agar dilution, E. coli DH10B producing VIM-2 R228Q; type: cell-based; details: Escherichia coli
# Experimental: as §8, §9
# [9] = test system: VIM-2 producing P. aeruginosa; assay: Imipenem MIC of clinical isolate, VIM-2 P. aeruginosa; type: cell-based
# [10] = test system: VIM-24 producing K. pneumoniae; assay: Imipenem MIC of clinical isolate, VIM-24 K. pneumoniae; type: cell-based; details: Klebsiella pneumoniae
# VIM-24 [11] = target: T2, VIM-24; assay: Steady-state kinetic parameters of substrate hydrolysis by VIM-24; type: biochemical; details: pH 7.5, 25° C., average ± SD, triplicate
# From the text: (§10) Steady-state reactions were followed using an Agilent (Santa Clara, Calif.) 8453 Diode Array spectrophotometer as previously described. […] For ceftazidime and cefepime, a 0.2-cm path length quartz cuvette was used. A nonlinear leastsquares fit of the data (Henri Michaelis-Menten equation) using Enzfitter (Biosoft Corporation, Ferguson, Mo.) was employed to obtain the steady-state kinetic parameters Vmax and KM according to equation 1.
# (§11) In this equation the observed first-order rate constant k=kcat/KM*[E].
# [12] = test system: O=C(Cc1cccs1)N[C@@H]1C(=O)N2C(C(=O)O)=C(/C=C/c3ccc([N+](=O)[O-])cc3[N+](=O)[O-])CS[C@H]12; assay: Steady-state kinetic parameters of substrate hydrolysis by VIM-2; type: biochemical, P. aeruginosa; details: other: VIM-2, pH 7.5, 25° C., average ± SD, triplicate
# From the text: as §10, §11
# [13] = test system: CC(=O)OCC1=C(C(=O)O)N2C(=O)[C@@H](NC(=O)Cc3cccs3)[C@H]2SC1; assay: as above; type: biochemical, P. aeruginosa; details: other: VIM-2, pH 7.5, 25° C., average ± SD, triplicate
# From the text: as §10, §11
# [14] = test system: C[C@@H](O)[C@H]1C(=O)N2C(C(=O)O)=C(SCCN=CN)C[C@H]12; assay: as above; type: biochemical, P. aeruginosa; details: other: VIM-2, pH 7.5, 25° C., average ± SD, triplicate
# From the text: as §10, §11
# [15] = initial complex EI, NCF as reporter substrate
# [16] = overall dissociation constant of two-step mechanism (E*I)
# [17] = MHA supplemented with 5 μM EDTA
# [18] = MHA supplemented with 250 μM Zn2+
Compound,Ki (VIM-2; [15]) [nM],Ki (VIM-2; [16]) [nM],k−2 (VIM-2),k2 (VIM-2),k2 (VIM-24 [1]),MIC (E. coli pBC SK(−); MHA) [µg/mL],MIC ([2]; MHA) [µg/mL],MIC ([3]; MHA) [µg/mL],MIC ([4]; MHA) [µg/mL],MIC ([5]; MHA) [µg/mL],MIC ([6]; MHA) [µg/mL],MIC ([7]; MHA) [µg/mL],MIC ([8]; MHA) [µg/mL],further results
O=C(O)[C@H]1CS[C@@H]2CS[C@@H](CS)N12 [D-CS319],5400 ± 400,180 ± 20,0.0003 ± 1 × 10^−4 s^−1,0.01 ± 1 × 10^−3 s^−1,0.07 ± 4 × 10^−3 s−1,–,–,–,–,–,–,–,–,k−2 (VIM-24 [1]): 0.004 ± 1 × 10^−3 s^−1
CC1(C)S[C@@H]2[C@H](NC(=O)[C@H](N)c3ccccc3)C(=O)N2[C@H]1C(=O)O [Ampicillin],–,–,–,–,–,4,32,512,1020,32,512,1020,1020,–
CC1(C)SC2CSC(CS)N2C1C(=O)O [L-VC26],3800 ± 200,250 ± 10,0.001 ± 1 × 10^−3 s^−1,0.02 ± 1 × 10^−3 s^−1,0.04 ± 2 × 10^−3 s−1,–,–,–,–,–,–,–,–,–
C[C@@H](O)[C@H]1C(=O)N2C(C(=O)O)=C(SCCN=CN)C[C@H]12 [Imipenem],–,–,–,–,–,0.25,0.25,0.5,1,0.5,0.5,2,4,"MIC (E. coli pBC SK(−); [17]): ≤ 0.125 µg/mL; MIC (E. coli pBC SK(−); [18]): 0.25 µg/mL; MIC ([9]; Pseudomonas aeruginosa): 32 µg/mL; MIC ([9]; VIM-2 harboring P. aeruginosa clinical isolate): 32 µg/mL; MIC ([10]; VIM-24 producing K. pneumoniae): 2 µg/mL; MIC ([10]; VIM-24 producing K. pneumoniae clinical isolate): 1 µg/mL; MIC [2, 17]: 0.25 µg/mL; MIC [2, 18]: 0.25 µg/mL; MIC [3, 17]: 0.5 µg/mL; MIC [3, 18]: 1 µg/mL; MIC [4, 17]: 1 µg/mL; MIC [4, 18]: 1 µg/mL; MIC [5, 17]: ≤ 0.125 µg/mL; MIC [5, 18]: 0.25 µg/mL; MIC [6, 17]: 0.5 µg/mL; MIC [6, 18]: 1 µg/mL; MIC [7, 17]: 1 µg/mL; MIC [7, 18]: 4 µg/mL; MIC [8, 17]: 4 µg/mL; MIC [8, 18]: > 4 µg/mL"
CO/N=C(\C(=O)N[C@@H]1C(=O)N2C(C(=O)O)=C(COC(C)=O)CS[C@H]12)c1csc(N)n1 [Cefotaxime],–,–,–,–,–,0.06,1,8,16,1,16,16,32,–
CC1(C)SC2CSC(CS)N2C1C(=O)O [D-VC26],14000 ± 1000,100 ± 30,0.0006 ± 4 × 10^−4 s^−1,0.09 ± 4 × 10^−3 s^−1,0.01 ± 3 × 10^−3 s−1,–,–,–,–,–,–,–,–,k−2 (VIM-24 [1]): 0.00007 ± 1 × 10^−5 s^−1
O=C(Cc1cccs1)N[C@@H]1C(=O)N2C(C(=O)O)=C(/C=C/c3ccc([N+](=O)[O-])cc3[N+](=O)[O-])CS[C@H]12 [Nitrocefin],–,–,–,–,–,–,–,–,–,–,–,–,–,Kcat (VIM-24 [11]): 171 ± 4 s⁻¹; Km (VIM-24 [11]): 11 ± 1 µM
VIM-2 (Pseudomonas aeruginosa),–,–,–,–,–,–,–,–,–,–,–,–,–,Km [12]: 13 ± 1 µM; kcat [12]: 430 ± 20 s⁻¹; kcat/Km [12]: 3.3e+07 M⁻¹ s⁻¹; Km [13]: 17 ± 2 µM; kcat [13]: 168 ± 8 s⁻¹; kcat/Km [13]: 9.8e+06 M⁻¹ s⁻¹; Km [14]: 12 ± 1 µM; kcat [14]: 45 ± 1 s⁻¹; kcat/Km [14]: 3.6e+06 M⁻¹ s⁻¹
CC(=O)OCC1=C(C(=O)O)N2C(=O)[C@@H](NC(=O)Cc3cccs3)[C@H]2SC1 [Cephalothin],–,–,–,–,–,8,16,–,–,16,–,–,1020,Kcat (VIM-24 [11]): 150 ± 9 s⁻¹; Km (VIM-24 [11]): 33 ± 5 µM
CO/N=C(\C(=O)N[C@@H]1C(=O)N2C(C(=O)O)=C(CSc3nc(=O)c(=O)[nH]n3C)CS[C@H]12)c1csc(N)n1 [Ceftriaxone],–,–,–,–,–,0.5,1,8,16,0.5,8,16,32,–
